Test system: HEK293 cells
Assay: Preliminary screening as DNA vectors, GFP transfection of HEK293 cells
Assay type: cell-based
Conditions: amino lipid/DOPE liposome with 75 ng plasmid DNA (psin-EGFP-IRES-Puro); number of GFP-expressing cells divided by total nuclei (Hoechst)
Method in brief: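 First, amino lipid and DOPE were vortexed in sodium acetate buffer (pH 5.6) to form liposomes. Next, these were held with 75 ng EGFP plasmid at room temperature for 30 min. Finally, HEK293 cells were added, cultured at 37° C., Hoechst-stained, and GFP+/total nuclei scored by imaging.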

First: CCCCCCCCCCCCCCSc1nc(NCCCCCCCC)nc(NCCN2CCCC2)n1 [S14N8 D3]
Second: CCCCCCCCCCCCCCSc1nc(NCCCCCCCC)nc(NCCN2CCCCC2)n1 [S14N8 D4]
The “Absolute DNA transfection efficiency in HEK293 cells” value (from here on “Absolute DNA transfection efficiency”) of the first is higher: 24.4% for the first, 2.6% for the second.

First: CCCCCCCCCCCCCCSc1nc(NCCCCCCCC)nc(NCCN2CCN(C)CC2)n1 [S14N8 D5]
Second: CCCCCCCCCCCCCCSc1nc(NCCCCCCCCC)nc(NCCN2CCN(C)CC2)n1 [S14N9 D5]
The “Absolute DNA transfection efficiency” value of the first is higher: 19.6% for the first, 16.9% for the second.

Going from CCCCCCCCCCCCCCSc1nc(NCCCCCCCC)nc(NCCCN(C)C)n1 [S14N8 D6] to CCCCCCCCCCCCCCSc1nc(NCCCCCCCCC)nc(NCCCN(C)C)n1 [S14N9 D6], the “Absolute DNA transfection efficiency” value rises from 33.4% to 43.9%.

Compared with CCCCCCCCCCCCCCSc1nc(NCCCCCCCC)nc(NCCN(CC)CC)n1 [S14N8 D7], CCCCCCCCCCCCCCSc1nc(NCCCCCCCCC)nc(NCCN(CC)CC)n1 [S14N9 D7] is higher in “Absolute DNA transfection efficiency” value: 1.6% for the first, 10.6% for the second.

First: CCCCCCCCCCCCCCSc1nc(NCCCCCCCC)nc(NCCCN2CCOCC2)n1 [S14N8 D8]
Second: CCCCCCCCCCCCCCSc1nc(NCCCCCCCCC)nc(NCCCN2CCOCC2)n1 [S14N9 D8]
The “Absolute DNA transfection efficiency” value of the first is lower: 9.8% for the first, 10.7% for the second.

Compared with CCCCCCCCCCCCCCSc1nc(NCCCCCCCC)nc(NCCCN2CCN(C)CC2)n1 [S14N8 D9], CCCCCCCCCCCCCCSc1nc(NCCCCCCCCC)nc(NCCCN2CCN(C)CC2)n1 [S14N9 D9] is higher in “Absolute DNA transfection efficiency” value: 15.7% for the first, 16.7% for the second.

Compared with CCCCCCCCCCCCCCSc1nc(NCCCCCCCC)nc(NCC2CCN(C)CC2)n1 [S14N8 D10], CCCCCCCCCCCCCCSc1nc(NCCCCCCCCC)nc(NCC2CCN(C)CC2)n1 [S14N9 D10] is lower in “Absolute DNA transfection efficiency” value: 26.2% for the first, 17.6% for the second.

Compared with CCCCCCCCCCCCCCSc1nc(NCCCCCCCCC)nc(NCCN(C)C)n1 [S14N9 D1], CCCCCCCCCCCCCCSc1nc(NCCCCCCCCCCC)nc(NCCN(C)C)n1 [S14N11 D1] is lower in “Absolute DNA transfection efficiency” value: 20.8% for the first, 11.8% for the second.

Compared with CCCCCCCCCCCCCCSc1nc(NCCCCCCCCC)nc(NCCN2CCOCC2)n1 [S14N9 D2], CCCCCCCCCCCCCCSc1nc(NCCCCCCCCCCC)nc(NCCN2CCOCC2)n1 [S14N11 D2] is higher in “Absolute DNA transfection efficiency” value: 9.7% for the first, 12.5% for the second.

Going from CCCCCCCCCCCCCCSc1nc(NCCCCCCCCC)nc(NCCN2CCCC2)n1 [S14N9 D3] to CCCCCCCCCCCCCCSc1nc(NCCCCCCCCC)nc(NCCN2CCCCC2)n1 [S14N9 D4], the “Absolute DNA transfection efficiency” value falls from 30.7% to 2.0%.

Compared with CCCCCCCCCCCCCCSc1nc(NCCCCCCCCCCC)nc(NCCN2CCCC2)n1 [S14N11 D3], CCCCCCCCCCCCCCSc1nc(NCCCCCCCCCCC)nc(NCCN2CCCCC2)n1 [S14N11 D4] is lower in “Absolute DNA transfection efficiency” value: 25.2% for the first, 3.1% for the second.

First: CCCCCCCCCCCCCCSc1nc(NCCCCCCCCCCC)nc(NCCN2CCN(C)CC2)n1 [S14N11 D5]
Second: CCCCCCCCCCCCCCSc1nc(NCCCCCCCCCCCC)nc(NCCN2CCN(C)CC2)n1 [S14N12 D5]
The “Absolute DNA transfection efficiency” value of the first is higher: 13.3% for the first, 9.8% for the second.

First: CCCCCCCCCCCCCCSc1nc(NCCCCCCCCCCC)nc(NCCCN(C)C)n1 [S14N11 D6]
Second: CCCCCCCCCCCCCCSc1nc(NCCCCCCCCCCCC)nc(NCCCN(C)C)n1 [S14N12 D6]
The “Absolute DNA transfection efficiency” value of the first is higher: 17.0% for the first, 6.3% for the second.

Going from CCCCCCCCCCCCCCSc1nc(NCCCCCCCCCCC)nc(NCCN(CC)CC)n1 [S14N11 D7] to CCCCCCCCCCCCCCSc1nc(NCCCCCCCCCCCC)nc(NCCN(CC)CC)n1 [S14N12 D7], the “Absolute DNA transfection efficiency” value falls from 8.6% to 1.1%.

First: CCCCCCCCCCCCCCSc1nc(NCCCCCCCCCCC)nc(NCCCN2CCOCC2)n1 [S14N11 D8]
Second: CCCCCCCCCCCCCCSc1nc(NCCCCCCCCCCCC)nc(NCCCN2CCOCC2)n1 [S14N12 D8]
The “Absolute DNA transfection efficiency” value of the first is higher: 2.2% for the first, 2.1% for the second.

Compared with CCCCCCCCCCCCCCSc1nc(NCCCCCCCCCCC)nc(NCCCN2CCN(C)CC2)n1 [S14N11 D9], CCCCCCCCCCCCCCSc1nc(NCCCCCCCCCCCC)nc(NCCCN2CCN(C)CC2)n1 [S14N12 D9] is lower in “Absolute DNA transfection efficiency” value: 10.2% for the first, 4.1% for the second.

Compared with CCCCCCCCCCCCCCSc1nc(NCCCCCCCCCCC)nc(NCC2CCN(C)CC2)n1 [S14N11 D10], CCCCCCCCCCCCCCSc1nc(NCCCCCCCCCCCC)nc(NCC2CCN(C)CC2)n1 [S14N12 D10] is lower in “Absolute DNA transfection efficiency” value: 9.0% for the first, 5.8% for the second.

First: CCCCCCCCCCCCCCSc1nc(NCCCCCCCCCCCC)nc(NCCN(C)C)n1 [S14N12 D1]
Second: CCCCCCCCCCCCCCSc1nc(NCCCCCCCCCCCCC)nc(NCCN(C)C)n1 [S14N13 D1]
The “Absolute DNA transfection efficiency” value of the first is higher: 15.3% for the first, 1.1% for the second.

Going from CCCCCCCCCCCCCCSc1nc(NCCCCCCCCCCCC)nc(NCCN2CCOCC2)n1 [S14N12 D2] to CCCCCCCCCCCCCCSc1nc(NCCCCCCCCCCCCC)nc(NCCN2CCOCC2)n1 [S14N13 D2], the “Absolute DNA transfection efficiency” value falls from 1.6% to 0.0%.

Going from CCCCCCCCCCCCCCSc1nc(NCCCCCCCCCCCC)nc(NCCN2CCCC2)n1 [S14N12 D3] to CCCCCCCCCCCCCCSc1nc(NCCCCCCCCCCCC)nc(NCCN2CCCCC2)n1 [S14N12 D4], the “Absolute DNA transfection efficiency” value falls from 21.0% to 3.8%.

Going from CCCCCCCCCCCCCCSc1nc(NCCCCCCCCCCCCC)nc(NCCN2CCCC2)n1 [S14N13 D3] to CCCCCCCCCCCCCCSc1nc(NCCCCCCCCCCCCC)nc(NCCN2CCCCC2)n1 [S14N13 D4], the “Absolute DNA transfection efficiency” value falls from 9.1% to 3.9%.

First: CCCCCCCCCCCCCCSc1nc(NCCCCCCCCCCCCC)nc(NCCN2CCN(C)CC2)n1 [S14N13 D5]
Second: CCCCCCCCCCCCCCSc1nc(NCCCCCCCCCCCCC)nc(NCCCN2CCN(C)CC2)n1 [S14N13 D9]
The “Absolute DNA transfection efficiency” value of the first is higher: 1.9% for the first, 1.4% for the second.

Going from CCCCCCCCCCCCCCSc1nc(NCCCCCCCCCCCCC)nc(NCCCN(C)C)n1 [S14N13 D6] to CCCCCCCCCCCCCCCNc1nc(NCCN(C)C)nc(SCCCCCCCCCCCCCC)n1 [S14N15 D1], the “Absolute DNA transfection efficiency” value falls from 2.6% to 0.4%.

First: CCCCCCCCCCCCCCSc1nc(NCCCCCCCCCCCCC)nc(NCCN(CC)CC)n1 [S14N13 D7]
Second: CCCCCCCCCCCCCCCNc1nc(NCCN2CCCC2)nc(SCCCCCCCCCCCCCC)n1 [S14N15 D3]
The “Absolute DNA transfection efficiency” value of the first is higher: 2.8% for the first, 1.0% for the second.

First: CCCCCCCCCCCCCCSc1nc(NCCCCCCCCCCCCC)nc(NCCCN2CCOCC2)n1 [S14N13 D8]
Second: CCCCCCCCCCCCCCCNc1nc(NCCN2CCOCC2)nc(SCCCCCCCCCCCCCC)n1 [S14N15 D2]
The “Absolute DNA transfection efficiency” value of the first is higher: 0.3% for the first, 0.1% for the second.

First: CCCCCCCCCCCCCCSc1nc(NCCCCCCCCCCCCC)nc(NCC2CCN(C)CC2)n1 [S14N13 D10]
Second: CCCCCCCCCCCCCCCNc1nc(NCCN2CCCCC2)nc(SCCCCCCCCCCCCCC)n1 [S14N15 D4]
The “Absolute DNA transfection efficiency” value of the first is higher: 2.2% for the first, 0.4% for the second.

Source: US20230123334A1, “AMINO LIPID COMPOUND, PREPARATION METHOD THEREFOR, AND APPLICATION THEREOF” (SHENZHEN SHENXIN BIOTECHNOLOGY CO., LTD., priority 2020, published 2023)
